4 molecules from US20240124409A1, “GUAIANOLIDE SESQUITERPENE LACTONE DERIVATIVES AND PHARMACEUTICAL USE THEREOF” (NANJING UNIVERSITY OF CHINESE MEDICINE, priority 2021, published 2024) can be followed below.

Marks after values point to notes of the source that are not given here.

Assay type in all cases: in vivo, C57BL/6 mice
Test [1] deals with DSS-induced UC model mice. The experiment in a line: Anti-ulcerative colitis activity, DSS mouse colitis model. To be noted: for MPO activity in colon tissue / Colon length: 10 days. On the set-up: key to DAI score: DAI = (weight loss + stool + occult blood scores)/3. The protocol:
Except for the normal group, the other mice were free to drink 2.5% DSS for 7 days, which was then replaced to distilled water to be drunk freely for 3 days to establish the UC model. […] The mice in the normal group and model groups were administered intragastrically the same volume of the solvent 0.5% CMC-Na.
The general living conditions of the mice in each group were observed and the disease activity indexs (DAI) were evaluated. The daily specific observation indicator was weight, stool property and occult blood state of mice, and then the scores of the weight loss, stool property and occult blood state were added to determine the average value, so as to obtain the DAI score of each mouse, that is, DAI=(weight loss score+stool property score+occult blood state score)/3, to evaluate the disease activity.
Test method of occult blood: Using o-toluidine method, a little feces was picked up into a 24-well culture plate with a cotton swab, into which was first added 200 μL of the solution of o-toluidine glacial acetic acid, and then quickly added 200 μL of 3% hydrogen peroxide solution. Those turned blue-brown within 2 minutes were positive.
1 h after the last administration, blood was collected from the venous plexus of fundus oculi, stood at room temperature for 2 h, and centrifuged at 3000 rpm for 20 min. The serum was aspirated, aliquoted, and frozen at −70° C. for subsequent use. After the blood collection, the mice were sacrificed by cervical dislocation, and the abdominal cavity was opened. The colon tissues were removed 1 cm away from the anus, rinsed twice with pre-cooled PBS, and frozen at −70° C. for subsequent use.
The shortening of colon length is one of the main characteristics of DSS-induced UC model mice. After dissecting the abdominal cavity of the UC mice, the colon and distal ileum tissues were dissociated. The external morphological changes of the colon tissues were observed, the colon length was measured and recorded, and the photos were taken.
40 mg of colon tissues of the mice in each group was taken, into which was added 400 μL of pre-cooled normal saline to prepare tissue homogenates. After centrifugation at 4° C. and 1200 rpm for 5 min, the supernatants were collected. According to the method described in the kit instructions, various reagents were added sequentially, and finally the absorbance value of each well was determined at the wavelength of 460 nm of the microplate reader to calculate the MPO activity.
MPO activity (U/g wet weight)=(OD value of test tube−OD value of control tube)/11.3×sampling amount(g)

For test [2], the system named is mouse acute lung injury model. The experiment in a line: Mouse acute lung injury model (LPS), ELISA. To be noted: title: serum (text b290: lung tissues). The protocol:
In addition to the normal group injected intragastrically with PBS, other mice were injected intraperitoneally with LPS (7.5 mg/kg) to establish acute lung injury models. Three days before model establishment, the parent drug 1 (0.4 and 4 μmol/kg), the hydrochloride 22 (0.4 and 4 μmol/kg), the fumarate 23 (0.4 and 4 μmol/kg) and the positive drug Dex (12 μmol/kg) were administered intragastrically in advance, and LPS (7.5 mg/kg) was injected intraperitoneally half an hour after administration on the third day.
abdominal cavity was opened. The lungs were taken out, and rinsed twice with pre-cooled PBS. […] The remaining tissues were frozen at −70° C. for subsequent use.
20 mg of lung tissues were accurately weighed, rinsed with pre-cooled PBS solution, cut into small pieces by ophthalmic surgical scissors, and put into a glass homogenizer, into which was added 180 μL PBS (containing 1 mM PMSF). The mixture was homogenized at 60 HZ for 180 s, and centrifuged at 3000 rpm/min at 4° C. for 20 min. 1 μL supernatant was taken, the protein concentration of which was measured with Nanodrop and leveled, and could be used for subsequent experiments.

In test [3] the test system is Hepa1-6 cells. The test is described as follows: Hepa1-6 subcutaneous mouse xenograft model. To be noted: 2 weeks. The protocol: Hepa1-6 cells were cultured and amplified in vitro. Appropriate amount of the cells in logarithmic growth phase were resuspended in a suspension of a serum-free DMEM medium and Matrigel (1:1) to prepare a cell suspension in 2.5×10^6/100 μL under sterile conditions. 100 μL of the cell suspension was subcutaneously inoculated into the armpits of the front left limbs of C57BL/6 mice with a syringe. When the tumor volume grew to 100-200 mm^3, animals with moderate tumor size were randomly divided into groups, with 6 animals in each group. […] The mice were administered intragastrically every day for 2 weeks. During the administration, the weights and tumor diameters of the mice were measured every day. After the experiment, the mice were sacrificed by cervical dislocation, and the tumors were taken and weighed. The formula for calculating a tumor volume (TV) is: TV=½×a×b^2, where a represents the long diameter of a tumor; b represents the short diameter of a tumor.

Take `C=C1C(=O)O[C@@H]2[C@@H]3[C@]4(CC[C@@]3(C)O)C[C@]4(C)CC[C@@H]12` [Compound 1]: the results for the “MPO activity in colon tissue” value in test [1] (20 nmol/kg i.g.) and in test [1] (40 nmol/kg i.g.) were 1.40 ± 0.31 U/g tissue and 1.08 ± 0.12 U/g tissue, respectively. Moreover, the figures for the Colon length in test [1] (20 nmol/kg/d i.g.) and in test [1] (40 nmol/kg/d i.g.) were 6.15 ± 0.35 cm and 6.78 ± 0.28 cm, respectively. For the same molecule, the DAI score worked out at 0.00 ± 0.00 in test [1] (day 1, 20 nmol/kg i.g.); 0.00 ± 0.00 in test [1] (day 1, 40 nmol/kg i.g.); 0.33 ± 0.14 in test [1] (day 2, 20 nmol/kg i.g.); 0.33 ± 0.19 in test [1] (day 2, 40 nmol/kg i.g.); 0.75 ± 0.28 in test [1] (day 3, 20 nmol/kg i.g.); 0.58 ± 0.21 in test [1] (day 3, 40 nmol/kg i.g.). Also, the DAI score in test [1] (day 4, 20 nmol/kg i.g.) is 1.08 ± 0.37; in test [1] (day 4, 40 nmol/kg i.g.), 1.00 ± 0.19; in test [1] (day 5, 20 nmol/kg i.g.) it was 1.75 ± 0.50; in test [1] (day 5, 40 nmol/kg i.g.), 1.25 ± 0.34; in test [1] (day 6, 20 nmol/kg i.g.), 2.25 ± 0.44; in test [1] (day 6, 40 nmol/kg i.g.), 1.67 ± 0.36. Besides, the DAI score in test [1] (day 7, 20 nmol/kg i.g.) worked out at 2.50 ± 0.17; in test [1] (day 7, 40 nmol/kg i.g.), 1.83 ± 0.44; in test [1] (day 8, 20 nmol/kg i.g.) it was 2.75 ± 0.39; in test [1] (day 8, 40 nmol/kg i.g.), 1.92 ± 0.50; in test [1] (day 9, 20 nmol/kg i.g.), 1.83 ± 0.17; in test [1] (day 9, 40 nmol/kg i.g.), 1.17 ± 0.32. Further, the DAI score in test [1] (day 10, 20 nmol/kg i.g.) was found to be 1.25 ± 0.16; in test [1] (day 10, 40 nmol/kg i.g.), 0.50 ± 0.22. Also, the IL-1β in test [2] (0.4 μmol/kg) worked out at 1824.88 ± 32.73 pg/mL; in test [2] (4 μmol/kg), 945.66 ± 36.71 pg/mL. In addition, the IL-6 came to 2760.57 ± 288.02 pg/mL in test [2] (0.4 μmol/kg) and 1314.91 ± 231.08 pg/mL in test [2] (4 μmol/kg).

Consider `CN(C)C[C@@H]1C(=O)O[C@H]2[C@H]1CC[C@@]1(C)C[C@]13CC[C@@](C)(O)[C@H]23` [Compound 22], for which, in test [2] (0.4 μmol/kg), the IL-1β stood at 1570.02 ± 62.95 pg/mL and the IL-6 turned out to be 2348.32 ± 202.75 pg/mL. Further, in test [2] (4 μmol/kg), the IL-1β is on record as 708.74 ± 38.40 pg/mL and the IL-6 is listed as 1172.00 ± 240.50 pg/mL.

As for `CN(C)C[C@@H]1C(=O)O[C@H]2[C@H]1CC[C@@]1(C)C[C@]13CC[C@@](C)(O)[C@H]23` [Compound 23], the results for the “MPO activity in colon tissue” value in test [1] (20 nmol/kg i.g.) and in test [1] (40 nmol/kg i.g.) were 1.29 ± 0.11 U/g tissue and 0.99 ± 0.18 U/g tissue, respectively. Moreover, the Colon length turned out to be 6.51 ± 0.25 cm in test [1] (20 nmol/kg/d i.g.) and 7.26 ± 0.26 cm in test [1] (40 nmol/kg/d i.g.). The DAI score in test [1] (day 1, 20 nmol/kg i.g.) was 0.00 ± 0.00; in test [1] (day 1, 40 nmol/kg i.g.), 0.00 ± 0.00; in test [1] (day 2, 20 nmol/kg i.g.) it was 0.27 ± 0.09; in test [1] (day 2, 40 nmol/kg i.g.), 0.16 ± 0.10; in test [1] (day 3, 20 nmol/kg i.g.), 0.63 ± 0.14; in test [1] (day 3, 40 nmol/kg i.g.), 0.54 ± 0.11. Further, the DAI score is recorded as 0.96 ± 0.16 in test [1] (day 4, 20 nmol/kg i.g.); 1.20 ± 0.14 in test [1] (day 4, 40 nmol/kg i.g.); 1.02 ± 0.23 in test [1] (day 5, 20 nmol/kg i.g.); 0.61 ± 0.23 in test [1] (day 5, 40 nmol/kg i.g.); 1.56 ± 0.41 in test [1] (day 6, 20 nmol/kg i.g.); 1.07 ± 0.25 in test [1] (day 6, 40 nmol/kg i.g.). In addition, the DAI score is reported as 2.28 ± 0.23 in test [1] (day 7, 20 nmol/kg i.g.); 1.38 ± 0.25 in test [1] (day 7, 40 nmol/kg i.g.); 2.46 ± 0.26 in test [1] (day 8, 20 nmol/kg i.g.); 1.57 ± 0.28 in test [1] (day 8, 40 nmol/kg i.g.); 1.31 ± 0.18 in test [1] (day 9, 20 nmol/kg i.g.); 1.05 ± 0.25 in test [1] (day 9, 40 nmol/kg i.g.). In addition, the DAI score came to 0.80 ± 0.16 in test [1] (day 10, 20 nmol/kg i.g.) and 0.35 ± 0.16 in test [1] (day 10, 40 nmol/kg i.g.). The molecule further displayed a Tumor growth inhibition in test [3] (8.43 mg/kg/d i.g.) of 96.78%***. This molecule returned a Tumor weight in test [3] (8.43 mg/kg/d i.g.) of 0.03 g. For the same molecule, the IL-1β in test [2] (0.4 μmol/kg) is reported as 1623.55 ± 32.64 pg/mL; in test [2] (4 μmol/kg) it was 888.28 ± 35.20 pg/mL. The IL-6 is listed as 2585.26 ± 273.50 pg/mL in test [2] (0.4 μmol/kg) and 1288.32 ± 123.80 pg/mL in test [2] (4 μmol/kg).

In the case of `C=C1C(=O)O[C@@H]2[C@H]3C(C)=CC[C@@]34O[C@@]4(C)CC[C@@H]12` [arglabin, reference compound], the “MPO activity in colon tissue” value in test [1] (20 nmol/kg i.g.) was determined as 0.95 ± 0.18 U/g tissue. Besides, the Colon length in test [1] (20 nmol/kg/d i.g.) is on record as 6.50 ± 0.15 cm. Besides, the DAI score came out at 0.00 ± 0.00 in test [1] (day 1, 20 nmol/kg i.g.); 0.36 ± 0.20 in test [1] (day 2, 20 nmol/kg i.g.); 0.65 ± 0.20 in test [1] (day 3, 20 nmol/kg i.g.); 1.17 ± 0.19 in test [1] (day 4, 20 nmol/kg i.g.); 1.39 ± 0.13 in test [1] (day 5, 20 nmol/kg i.g.); 1.62 ± 0.10 in test [1] (day 6, 20 nmol/kg i.g.). Moreover, the DAI score is 2.07 ± 0.17 in test [1] (day 7, 20 nmol/kg i.g.); 2.32 ± 0.10 in test [1] (day 8, 20 nmol/kg i.g.); 1.45 ± 0.13 in test [1] (day 9, 20 nmol/kg i.g.); 0.92 ± 0.06 in test [1] (day 10, 20 nmol/kg i.g.). The same molecule returned a Tumor growth inhibition in test [3] (10 mg/kg/d i.g.) of 95.86%***. In addition, the Tumor weight in test [3] (10 mg/kg/d i.g.) is given as 0.04 g.
